This test deals with artificially induced SVF. Put plainly: Transformation of electrically induced SVF to TVF in anesthetized cats (antiarrhythmic defibrillating activity). The test is classed as in vivo. The conditions noted are these: intravenous, VF type examined before and 2 to 3 min after drug; for Relative activity in dosage of 1 mg/kg: monohydrochloride. The protocol:
10,11-dihydro-5-[(3-N-alkyl)1-oxopropyl] 5-H-dibenzo[b,f]azepin monohydrochloride, 10,11-dihydro-5-[N-? isopropylamino-2propanol)] 5-H-dibenzo [b,f]azepin monohydrochloride and 11-Oxo-10,11-dihydro-5-[(N-alkyl)1-oxopropyl]-5-H-dibenzo [b,e] [1,4] diazepin hydrochloride were synthesized as is described hereinabove and tested for their effectiveness in transforming SVF to TVF, as described herein. […] The experimental method was as follows.
Hydrochloride salts of the compounds were dissolved in saline. Activity of each compound was tested in cats of both sexes. Cats were anesthetized with 15-25 mg/kg intravenous sodium, pentobarbital. The tested compounds were injected intravenously (1-3 mg/kg). The heart of each experimental subject was exposed through midline thoracotomy, and a room air respirator was applied through a tracheal cannula. Lead II electrocardiogram and intra-arterial blood pressure was recorded on a Grass Polygraph (Grass Instrument Co., Quincy, Mass., USA).
Fibrillating stimuli (a train of rectangular pulses of 2 to 15 V, 100 pulses/sec and duration of 0.1 to 1.0 msec, for a period of 1 sec) were delivered through two silver needle electrodes attached to the pericardium on the left ventricle. Fibrillating stimuli were one and a half to twice the strength of the fibrillating threshold.
VF was induced before and after drug administration, according to a previously described procedure. The type of VF was examined before and 2 to 3 min after drug treatment. Each cat served as its own control. In some experiments, a β-adrenergic blocker (propranolol, 0.1-0.6 mg/kg) was administered after drug administration, in order to evaluate the neutralizing effect of the blocker on the compound-induced catecholamine levels. Table l below presents the results.

Consider `CC(C)NCC(O)CN1c2ccccc2CCc2ccccc21.Cl` (stereo not drawn) [Compound 25bi], for which the “Relative activity in dosage of 1 mg/kg” value stood at 100% and the “Relative activity in dosage of 2 mg/kg” value is 100%.

On to `CC(C)NCC(O)CN1c2ccccc2CCc2ccccc21.Cl` (stereo not drawn) [Compound 25bir], for which the “Relative activity in dosage of 1 mg/kg” value is 50% and the “Relative activity in dosage of 2 mg/kg” value is on record as 100%.

`CC(C)NCC(O)CN1c2ccccc2CCc2ccccc21.Cl` (stereo not drawn) [Compound 25bis]: the “Relative activity in dosage of 1 mg/kg” value amounted to 100% and the “Relative activity in dosage of 2 mg/kg” value is reported as 100%.
